# Results taken from patent publication US20220251163A1 (Sinopep-Allsino Biopharmaceutical Co., Ltd., priority 2019, published 2022).
# *1 amine or outer side, *2 acyl side, *3 side chain or, on linkers, in order; H or OH if unused. Where a SMILES comes first, the peptide text is derived from it. Side-chain parts run from the residue outwards. The star is where a group is joined. C18 diacid = O=C(O)CCCCCCCCCCCCCCCCC(=O)*; γGlu = O=C(O)[C@H](CCC(=O)[*:2])N[*:1]; AEEA = NCCOCCOCC(=O)O
# What was measured:
# [1] = Effect on random weight of ob/ob mice after single subcutaneous injection; assay type: in vivo; details: 100 μg/kg single s.c., X ± s, n = 7
# Method: The mice in each group received random blood glucose value measurement before (0 h) administration and 2, 4, 6, 10 and 24 h after administration, and then the time for measuring the random blood glucose was adjusted and prolonged to 34, 48, 58 or 72 h after administration according to the blood glucose condition of the mice in each group. Meanwhile, the random weight of the mice in each group before (0 h) administration and 24 h after administration was weighed, and then the random weight of the mice corresponding to the random blood glucose measurement condition 48 or 72 h after administration was weighed.
# mGLP-1R = molecular target: T1, mGLP-1R (Mus musculus, UniProt O35659); test: GLP-1R agonist activity, cAMP in transfected HEK293 cells; assay type: cell-based
# T1 construct: expressed in transfected cells; host or cells: HEK293
# T1 sequence (O35659 22-463): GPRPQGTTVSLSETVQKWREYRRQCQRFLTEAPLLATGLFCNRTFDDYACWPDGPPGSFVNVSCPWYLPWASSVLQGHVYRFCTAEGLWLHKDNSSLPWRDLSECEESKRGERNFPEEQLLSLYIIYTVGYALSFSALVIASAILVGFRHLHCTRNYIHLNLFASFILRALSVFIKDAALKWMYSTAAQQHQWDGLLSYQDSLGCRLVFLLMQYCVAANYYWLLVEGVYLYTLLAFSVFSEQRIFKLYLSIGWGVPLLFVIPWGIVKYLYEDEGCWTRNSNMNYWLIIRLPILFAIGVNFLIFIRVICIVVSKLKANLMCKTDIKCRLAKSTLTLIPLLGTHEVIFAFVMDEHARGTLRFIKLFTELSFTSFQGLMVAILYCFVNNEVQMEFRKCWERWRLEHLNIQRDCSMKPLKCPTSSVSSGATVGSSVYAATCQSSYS
# Method: HEK293 cells were co-transfected with cDNA encoding GLP-1R or GIPR. In a test for determining the compound, the cells were inoculated in a 96-well plate 2 h in advance, the polypeptide compound was dissolved with DMSO, and diluted to different multiples with a culture medium containing 0.1% bovine serum albumin and added to the co-transfected cells. After the cells were incubated for 20 min, fluorescence values were determined through microplate reader of an ELISA kit of the Cisbo Company, a standard curve was established to convert the fluorescence values into corresponding cAMP values, and the EC50 value of the compound was calculated through nonlinear regression of Graphpad Prism 5.0 software.
# ob/ob mice = test: Blood glucose reducing experiment, single subcutaneous injection in ob/ob mice; assay type: in vivo; details: 100 μg/kg single s.c.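 Also: random blood glucose read at each time point, decrease rate given as percentage fall versus the model control group.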
# Method: The mice in each group received random blood glucose value measurement before (0 h) administration and 2, 4, 6, 10 and 24 h after administration, and then the time for measuring the random blood glucose was adjusted and prolonged to 34, 48, 58 or 72 h after administration according to the blood glucose condition of the mice in each group. Meanwhile, the random weight of the mice in each group before (0 h) administration and 24 h after administration was weighed, and then the random weight of the mice corresponding to the random blood glucose measurement condition 48 or 72 h after administration was weighed. The blood glucose decrease rate, the blood glucose curve area (AUC0-24 h Glu) within 24 h after administration and the decrease rate were calculated according to the following formula.
# Blood glucose decrease rate=(blood glucose in the model control group−blood glucose in the administration group)/blood glucose in the model control group×100%
# BG0, BG2, BG4, BG6, BG10 and BG24 represented the blood glucose values before administration (0 h) and 2, 4, 6, 10 and 24 h after administration respectively.
# AUC0-24 h Glu(mmol/Lh·r) decrease rate=(model control group AUC0-24 h Glu−administration group AUC0-24 h Glu/model control group AUC0-24 h Glu×100%
# Experiments were carried out twice, at an interval of 8-10 days.
# mGIPR = molecular target: T2, mGIPR (Mus musculus, UniProt Q0P543); test: GIPR agonist activity, cAMP in transfected HEK293 cells; assay type: cell-based
# T2 construct: expressed in transfected cells; host or cells: HEK293
# T2 sequence (Q0P543 19-460): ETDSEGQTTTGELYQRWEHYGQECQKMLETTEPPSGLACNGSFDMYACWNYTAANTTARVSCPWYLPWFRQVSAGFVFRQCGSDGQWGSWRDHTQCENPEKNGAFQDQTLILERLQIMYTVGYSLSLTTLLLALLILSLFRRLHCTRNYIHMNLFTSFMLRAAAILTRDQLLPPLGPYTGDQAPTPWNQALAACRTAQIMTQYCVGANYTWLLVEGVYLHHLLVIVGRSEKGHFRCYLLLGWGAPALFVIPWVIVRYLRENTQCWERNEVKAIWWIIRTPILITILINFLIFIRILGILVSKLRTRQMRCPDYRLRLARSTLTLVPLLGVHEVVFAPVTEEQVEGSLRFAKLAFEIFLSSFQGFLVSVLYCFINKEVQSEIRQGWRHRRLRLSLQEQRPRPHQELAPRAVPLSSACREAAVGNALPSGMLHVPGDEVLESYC
# Method: HEK293 cells were co-transfected with cDNA encoding GLP-1R or GIPR. In a test for determining the compound, the cells were inoculated in a 96-well plate 2 h in advance, the polypeptide compound was dissolved with DMSO, and diluted to different multiples with a culture medium containing 0.1% bovine serum albumin and added to the co-transfected cells.
smiles,measurement,setting,value
CC[C@H](C)[C@H](NC(=O)[C@H](CC(C)C)NC(=O)[C@H](Cc1c[nH]c2ccccc12)NC(=O)[C@H](CCC(N)=O)NC(=O)[C@@H](NC(=O)[C@H](Cc1ccccc1)NC(=O)[C@H](C)NC(=O)[C@H](CCCCNC(=O)COCCOCCNC(=O)COCCOCCNC(=O)CC[C@H](NC(=O)CCCCCCCCCCCCCCCCC(=O)O)C(=O)O)NC(=O)[C@H](CCC(N)=O)NC(=O)[C@H](C)NC(=O)[C@@H](NC(=O)[C@H](CCCCN)NC(=O)[C@H](CC(=O)O)NC(=O)[C@H](CC(C)C)NC(=O)[C@@H](NC(=O)[C@@H](NC(=O)[C@H](CO)NC(=O)[C@H](Cc1ccc(O)cc1)NC(=O)[C@H](CC(=O)O)NC(=O)[C@H](CO)NC(=O)[C@@H](NC(=O)[C@H](Cc1ccccc1)NC(=O)[C@@H](NC(=O)CNC(=O)[C@H](CCC(=O)O)NC(=O)[C@@H](NC(=O)[C@@H](N)Cc1ccc(O)cc1)C(C)C)[C@@H](C)O)[C@@H](C)O)[C@@H](C)CC)C(C)C)[C@@H](C)CC)C(C)C)C(=O)N[C@@H](C)C(=O)NCC(=O)NCC(=O)N1CCC[C@H]1C(=O)N[C@@H](CO)C(=O)N[C@@H](CO)C(=O)NCC(=O)N[C@@H](C)C(=O)N1CCC[C@H]1C(=O)N1CCC[C@H]1C(=O)N1CCC[C@H]1C(=O)N[C@@H](CO)C(N)=O [ID NO: 1] (H-YVEGTFTSDYSIVLDKIAQK([AEEA-AEEA-γGlu-C18 diacid])AFVQWLIAGGPSSGAPPPS-NH2),"Changes of random body weight at different time after administration, 0 h",[1]; 0 h,0.0 ± 0.0 g
same,"Random body weight at different time after administration, 0 h",[1]; 0 h,43.2 ± 0.5 g
same,"Changes of random body weight at different time after administration, 24 h",[1]; 24 h,-1.1 ± 0.2 g
same,"Random body weight at different time after administration, 24 h",[1]; 24 h,42.0 ± 0.5 g
same,"Changes of random body weight at different time after administration, 48 h",[1]; 48 h,-0.6 ± 0.1 g
same,"Random body weight at different time after administration, 48 h",[1]; 48 h,42.7 ± 0.6 g
same,EC50,mGLP-1R,14.6 pM
same,"Blood glucose at different time after administration, 0 h","ob/ob mice; 0 h (before administration), X ± s, n = 7",20.31 ± 0.99 mmol/L
same,"Decrease rate of blood glucose at different time after administration, 2 h",ob/ob mice; 2 h,50.2%
same,"Blood glucose at different time after administration, 2 h","ob/ob mice; 2 h, X ± s, n = 7",10.12 ± 0.87 mmol/L
same,"Decrease rate of blood glucose at different time after administration, 4 h",ob/ob mice; 4 h,51.1%
same,"Blood glucose at different time after administration, 4 h","ob/ob mice; 4 h, X ± s, n = 7",9.94 ± 0.86 mmol/L
same,"Decrease rate of blood glucose at different time after administration, 6 h",ob/ob mice; 6 h,51.6%
same,"Blood glucose at different time after administration, 6 h","ob/ob mice; 6 h, X ± s, n = 7",9.83 ± 0.87 mmol/L
same,"Decrease rate of blood glucose at different time after administration, 10 h",ob/ob mice; 10 h,47.0%
same,"Blood glucose at different time after administration, 10 h","ob/ob mice; 10 h, X ± s, n = 7",10.76 ± 1.12 mmol/L
same,"Decrease rate of blood glucose at different time after administration, 24 h",ob/ob mice; 24 h,41.5%
same,"Blood glucose at different time after administration, 24 h","ob/ob mice; 24 h, X ± s, n = 7",11.89 ± 2.12 mmol/L
same,"Decrease rate of blood glucose at different time after administration, 34 h",ob/ob mice; 34 h,31.4%
same,"Blood glucose at different time after administration, 34 h","ob/ob mice; 34 h, X ± s, n = 7",13.93 ± 1.01 mmol/L
same,"Decrease rate of blood glucose at different time after administration, 48 h",ob/ob mice; 48 h,14.7%
same,AUC0-24 h Glu,"ob/ob mice; blood glucose curve area within 24 h, X ± s, n = 7",269.99 ± 19.45 mmol·h/L
same,AUC0-24 h Glu Decrease rate,ob/ob mice; versus model control group,47.1%
CC[C@H](C)[C@H](NC(=O)[C@H](CC(C)C)NC(=O)[C@H](Cc1c[nH]c2ccccc12)NC(=O)[C@H](CCC(N)=O)NC(=O)[C@@H](NC(=O)[C@H](Cc1ccccc1)NC(=O)[C@H](C)NC(=O)[C@H](CCCCNC(=O)COCCOCCNC(=O)COCCOCCNC(=O)CC[C@H](NC(=O)CCCCCCCCCCCCCCCCC(=O)O)C(=O)O)NC(=O)[C@H](CCC(N)=O)NC(=O)[C@H](C)NC(=O)[C@@H](NC(=O)[C@H](CCCCN)NC(=O)[C@H](CC(=O)O)NC(=O)[C@H](CC(C)C)NC(=O)C1(NC(=O)[C@@H](NC(=O)[C@H](CO)NC(=O)[C@H](Cc2ccc(O)cc2)NC(=O)[C@H](CC(=O)O)NC(=O)[C@H](CO)NC(=O)[C@@H](NC(=O)[C@H](Cc2ccccc2)NC(=O)[C@@H](NC(=O)CNC(=O)[C@H](CCC(=O)O)NC(=O)C2(NC(=O)[C@@H](N)Cc3ccc(O)cc3)CCC2)[C@@H](C)O)[C@@H](C)O)[C@@H](C)CC)CCC1)[C@@H](C)CC)C(C)C)C(=O)N[C@@H](C)C(=O)NCC(=O)NCC(=O)N1CCC[C@H]1C(=O)N[C@@H](CO)C(=O)N[C@@H](CO)C(=O)NCC(=O)N[C@@H](C)C(=O)N1CCC[C@H]1C(=O)N1CCC[C@H]1C(=O)N1CCC[C@H]1C(=O)N[C@@H](CO)C(N)=O [ID NO: 2],EC50,mGLP-1R,6.13 pM
CC[C@H](C)[C@H](NC(=O)[C@H](CC(C)C)NC(=O)[C@H](Cc1c[nH]c2ccccc12)NC(=O)[C@H](CCC(N)=O)NC(=O)[C@@H](NC(=O)[C@H](Cc1ccccc1)NC(=O)[C@H](C)NC(=O)[C@H](CCCCNC(=O)COCCOCCNC(=O)COCCOCCNC(=O)CC[C@H](NC(=O)CCCCCCCCCCCCCCCCC(=O)O)C(=O)O)NC(=O)[C@H](CCC(N)=O)NC(=O)[C@H](C)NC(=O)[C@@H](NC(=O)[C@H](CCCCN)NC(=O)[C@H](CC(=O)O)NC(=O)[C@H](CC(C)C)NC(=O)C1(NC(=O)[C@@H](NC(=O)[C@H](CO)NC(=O)[C@H](Cc2ccc(O)cc2)NC(=O)[C@H](CC(=O)O)NC(=O)[C@H](CO)NC(=O)[C@@H](NC(=O)[C@H](Cc2ccccc2)NC(=O)[C@@H](NC(=O)CNC(=O)[C@H](CCC(=O)O)NC(=O)C2(NC(=O)[C@@H](N)Cc3ccc(O)cc3)CCCC2)[C@@H](C)O)[C@@H](C)O)[C@@H](C)CC)CCCC1)[C@@H](C)CC)C(C)C)C(=O)N[C@@H](C)C(=O)NCC(=O)NCC(=O)N1CCC[C@H]1C(=O)N[C@@H](CO)C(=O)N[C@@H](CO)C(=O)NCC(=O)N[C@@H](C)C(=O)N1CCC[C@H]1C(=O)N1CCC[C@H]1C(=O)N1CCC[C@H]1C(=O)N[C@@H](CO)C(N)=O [ID NO: 3],EC50,mGIPR,1.49 pM
same,EC50,mGLP-1R,3.96 pM
CC[C@H](C)[C@H](NC(=O)[C@H](CC(C)C)NC(=O)[C@H](Cc1c[nH]c2ccccc12)NC(=O)[C@H](CCC(N)=O)NC(=O)[C@@H](NC(=O)[C@H](Cc1ccccc1)NC(=O)[C@H](C)NC(=O)[C@H](CCCCNC(=O)COCCOCCNC(=O)COCCOCCNC(=O)CC[C@H](NC(=O)CCCCCCCCCCCCCCCCC(=O)O)C(=O)O)NC(=O)[C@H](CCC(N)=O)NC(=O)[C@H](C)NC(=O)[C@@H](NC(=O)[C@H](CCCCN)NC(=O)[C@H](CC(=O)O)NC(=O)[C@H](CC(C)C)NC(=O)C(C)(C)NC(=O)[C@@H](NC(=O)[C@H](CO)NC(=O)[C@H](Cc1ccc(O)cc1)NC(=O)[C@H](CC(=O)O)NC(=O)[C@H](CO)NC(=O)[C@@H](NC(=O)[C@H](Cc1ccccc1)NC(=O)[C@@H](NC(=O)CNC(=O)[C@H](CCC(=O)O)NC(=O)C1(NC(=O)[C@@H](N)Cc2ccc(O)cc2)CCC1)[C@@H](C)O)[C@@H](C)O)[C@@H](C)CC)[C@@H](C)CC)C(C)C)C(=O)N[C@@H](C)C(=O)NCC(=O)NCC(=O)N1CCC[C@H]1C(=O)N[C@@H](CO)C(=O)N[C@@H](CO)C(=O)NCC(=O)N[C@@H](C)C(=O)N1CCC[C@H]1C(=O)N1CCC[C@H]1C(=O)N1CCC[C@H]1C(=O)N[C@@H](CO)C(N)=O [ID NO: 7],EC50,mGIPR,7.66 pM
same,EC50,mGLP-1R,5.49 pM
